As usually defined, the Ki is the dissociation constant of the complex between target and ligand, obtained from inhibition or displacement. By IC50 is commonly meant the concentration needed to halve the response being measured. High values mean weaker potency in that assay, low ones greater potency in that assay.

Entries after “also recorded” stand apart in the source; their conditions may differ. A value given as a limit tells only on which side of the number the result lay.

One molecule from patent publication US20250188080A1, “IMIDAZOLONYLQUINOLINE COMPOUNDS AND THERAPEUTIC USES THEREOF” (Merck Patent GmbH, priority 2019, published 2025) can be followed below.

Data set [1] has as its target T1, Kv11.1 hERG cardiac ion channel (Homo sapiens, UniProt Q12809).
T1 construct: expressed in transfected cells; host or cells: HEK293 (human embryonic kidney cells), stably transfected
Briefly: Kv11.1 (hERG) ion channel activity (patch clamp assay). The conditions noted are these: HEK293 transfected with hERG. It counts as cell-based. The protocol: Method for the detection and characterisation of test substances which interfere with the Kv11.1 (hERG) channel: Kv11.1 (hERG, human ether a-go-go related gene) is a potassium channel which plays a central role for repolarisation of the cells in the ventricular cardiomyocytes.
The patch-clamp measurement was carried out at room temperature in whole-cell configuration on human embryonic kidney cells (HEK293) which have been transfected in a stable manner with the hERG gene.
The whole-cell configurations were carried out using an automated patch clamp device (Patchliner™, Nanion Technologies, Munich). […]
The cells were clamped to a holding potential of −80 mV. […] DMSO (vehicle control, 0.1% of DMSO) was then applied, and the control current was recorded for 3 min. The test substance was subsequently added twice in the same concentration, and the potassium current was measured for 3.5 min in each case.
If the measurement result of a test substance at an initial concentration of 10 μM was smaller than (−)50% effect (threshold value) (for example (−)60% effect), the test substance was, in order to determine a dose/action relationship, added cumulatively in increasing concentration, where each concentration was measured for 5 min.
The reference substance used was the Kv11.1 (hERG) ion channel blocker quinidine. […] For the calculation, the current was evaluated for the respective final trace. […]
For orientation: The hERG channel carries a current that helps repolarise heart muscle cells.

Data set [2] deals with CYP1A2, CYP2C8, CYP2C9, CYP2C19, CYP2D6, CYP3A4. Description: Cytochrome P-450 enzymes (CYP) inhibition, P450-Glo. Type of data set: in vitro ADME. The note with it: human. The protocol: In the human organism, drug substances are converted to water-soluble compounds by enzyme systems to facilitate their excretion. These enzyme systems include microsomal cytochrome P-450 enzymes, CYPs for short. The assay is designed to identify whether a compound may be a strong inhibitor for defined CYP isoforms. This involves the use of recombinant CYP isoforms and their reductase obtained by overexpression in insect cells infected with baculovirus. The CYP reaction is performed through […] of the CYP isoform being tested along with a luminometric CYP substrate under NADPH-regenerating conditions. The luminometric P450-Glo™ substrates are derivatives of beetle luciferin ((4S)-4,5-dihydro-2-(6-hydroxybenzothiazolyl)-4-thiazolecarboxylic acid or D-luciferin), a substrate of firefly luciferase from beetles. […] This allows enzyme activity to be quantified rapidly through the luminosity. […] The following commercially available screening systems/assays are used: P450-Glo™ CYP1A2 Screening System (Promega Corporation; V9770); P450-Glo™ CYP2C8 Assay (Promega Corporation; V8782); P450-Glo™ CYP2C9 Screening System (Promega Corporation; V9790); P450-Glo™ CYP2C19 Screening System (Promega Corporation; V9880); P450-Glo™ CYP2D6 Screening System (Promega Corporation; […]); P450-Glo™ CYP3A4 Screening System (Luciferin-PPXE) (Promega Corporation; V9910).

Data set [3] relates to xenografts of the human squamous cell head and neck model FaDu. Description: FaDu SCCHN tumor model, combination with irradiation. The conditions noted are these: oral 10 or 25 mg/kg 30 min before each IR fraction; 6×5 days, 2 Gy. It counts as in vivo, NMRI nu/nu mice. Here is the method: One of the control groups was treated with vehicle only. The other control group was treated with IR only at 30 fractions IR of 2 Gy in a 5 days on/2 days off schedule and over a period of 6 weeks.

The subject of data set [4] is HBCx-10 patient-derived triple-negative breast cancer xenograft. Briefly: HBCx-10 patient-derived xenograft, combination with olaparib. Type of data set: in vivo, immunodeficient female mice. The note with it: 100 mg/kg p.o. (3 d on/4 d off)×7 with olaparib 50 mg/kg p.o. qd×49. Here is the method:
Seventy (70) mice with a subcutaneously growing HBCx-10 tumor (P20.1.4/0) between 62.5 and 196.0 mm^3 were allocated to treatment when their mean and median tumor volume reached 131.16 and 126.00 mm^3 respectively.
Tumors were measured biweekly during the treatment period and once a week during the follow-up period.
(Xenograft models place foreign cells or tissue in a host animal.)

T1 sequence (Q12809 whole entry): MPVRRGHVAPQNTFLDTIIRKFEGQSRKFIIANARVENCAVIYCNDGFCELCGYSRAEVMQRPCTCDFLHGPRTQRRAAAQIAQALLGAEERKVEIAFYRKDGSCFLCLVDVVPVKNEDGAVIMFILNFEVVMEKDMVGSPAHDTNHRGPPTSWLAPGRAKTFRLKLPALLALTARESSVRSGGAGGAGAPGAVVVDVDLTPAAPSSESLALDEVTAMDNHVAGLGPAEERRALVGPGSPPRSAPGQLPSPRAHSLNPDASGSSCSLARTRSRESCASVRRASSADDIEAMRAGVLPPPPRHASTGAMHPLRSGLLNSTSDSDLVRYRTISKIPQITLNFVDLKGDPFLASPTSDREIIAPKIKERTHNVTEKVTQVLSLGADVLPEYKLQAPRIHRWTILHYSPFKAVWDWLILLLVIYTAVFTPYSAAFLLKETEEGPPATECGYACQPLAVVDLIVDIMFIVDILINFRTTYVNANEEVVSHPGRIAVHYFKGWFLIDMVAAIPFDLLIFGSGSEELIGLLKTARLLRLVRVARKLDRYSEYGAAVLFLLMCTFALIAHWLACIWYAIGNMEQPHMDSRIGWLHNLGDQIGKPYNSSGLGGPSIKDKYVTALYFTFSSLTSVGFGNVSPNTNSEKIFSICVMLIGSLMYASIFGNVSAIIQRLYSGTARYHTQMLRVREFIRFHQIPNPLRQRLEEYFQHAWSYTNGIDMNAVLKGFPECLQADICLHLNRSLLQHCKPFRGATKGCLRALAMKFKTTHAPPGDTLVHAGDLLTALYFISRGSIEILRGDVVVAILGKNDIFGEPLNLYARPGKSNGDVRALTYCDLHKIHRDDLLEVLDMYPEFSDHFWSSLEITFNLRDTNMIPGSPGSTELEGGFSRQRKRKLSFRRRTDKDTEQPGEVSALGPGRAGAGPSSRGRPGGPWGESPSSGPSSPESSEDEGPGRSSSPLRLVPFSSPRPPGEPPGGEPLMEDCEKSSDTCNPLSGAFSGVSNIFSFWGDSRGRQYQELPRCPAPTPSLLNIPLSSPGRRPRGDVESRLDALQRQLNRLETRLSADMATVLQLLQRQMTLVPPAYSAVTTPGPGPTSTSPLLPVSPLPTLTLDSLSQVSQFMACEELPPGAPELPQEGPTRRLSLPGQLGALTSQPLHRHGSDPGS

Turning to `COc1cc2ncc3c(c2cc1-c1cn(C)nc1C)n(-c1c(F)cncc1OC)c(=O)n3C` (single isomer, unassigned) [Compound 1, 8-(1,3-Dimethyl-1H-pyrazol-4-yl)-1-(Sa)-(3-fluoro-5-methoxy-pyridin-4-yl)-7-methoxy-3-methyl-1,3-dihydro-imidazo[4,5-c]quinolin-2-one], the Ki in data set [1] was > 30 µM. The concentration for half-maximal inhibition (IC50) in data set [2] is ≥ 20 µM. The “Anti-tumor efficacy in combination with irradiation” value in data set [3] is listed as “significant dose-dependent anti-tumor responses; also recorded: strongly enhanced the efficacy of IR (irradiation) in a dose-dependent manner; also recorded: strong tumor growth inhibition”. Also, in data set [4], the “Anti-tumor efficacy in combination with olaparib” value is recorded as “efficacy of Compound 1 in combination with olaparib was demonstrated”.
